Target: T1, Human MTAP (Homo sapiens, UniProt Q13126)
T1 construct: six-histidine tag (His6) (N); made in house; host or cells: E. coli BL21 DE3
T1 sequence (Q13126 1-283): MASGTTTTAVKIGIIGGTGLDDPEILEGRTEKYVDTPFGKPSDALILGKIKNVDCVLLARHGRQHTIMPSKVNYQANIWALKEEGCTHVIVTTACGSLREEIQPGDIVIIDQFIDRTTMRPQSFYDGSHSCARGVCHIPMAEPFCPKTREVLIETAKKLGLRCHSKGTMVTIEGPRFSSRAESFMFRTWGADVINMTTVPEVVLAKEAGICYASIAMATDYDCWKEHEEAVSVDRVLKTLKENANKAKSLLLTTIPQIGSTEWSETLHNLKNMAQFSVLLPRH
Experiment: MTAP substrate assay, coupled spectrophotometric (adenine, xanthine oxidase)
Assay type: biochemical
Conditions: 2 nM MTAP; for activity at 50 µM: 10 min, compound 50 uM, relative to MTA at 50 uM, read-out: MT-A—50: initial velocity as a percentage of the initial velocity with MTA as substrate; for MT-A—10: initial velocity as a percentage of the initial velocity with MTA as substrate: compound 10 uM, relative to MTA at 10 uM
Procedure: An enzymatic assay to determine the activity of MTAP against a given substrate was performed. Human MTAP containing an N-terminal six-histidine tag was expressed in E. coli BL21 DE3 cells. The protein was purified to homogeneity by Ni2+ affinity chromatography. Enzymatic activity was measured using a coupled spectrophotometric assay designed to monitor the reaction product adenine (Savarese, T. M., Crabtree, G. W., and Parks, R. E. Jr., (1980) Biochem. Pharmacol. 30, 189-199). Various concentrations of the indicated 5′-deoxymethylthio adenosine (MTA) or substrate were incubated in assay buffer (40 mM potassium phosphate buffer, 1 mM, and DTT 0.8 units/ml xanthine oxidase coupling enzyme) for 5 minutes at 37° C. The reaction was initiated by the addition of MTAP. The exact concentration of enzyme used varied for each substrate tested and ranged from 2 nM to 500 nM. Activity as a function of enzyme concentration was determined for each substrate tested to ensure that the appropriate enzyme concentration was used. Activity was detected by continuous monitoring of absorbance at 305 nm for 10 minutes (ΔE=15,500 M^−1).
Library compounds (10 and 50 uM) were tested using the assay described above with 2 nM MTAP enzyme. The resultant initial velocities are reported as a percentage of the initial velocity observed when MTA is the substrate. MTA controls, 10 and 50 uM concentrations, were run on each plate alongside the library compounds.

| Compound | activity at 50 µM | MT-A—10: initial velocity as a percentage of the initial velocity with MTA as substrate |
| --- | --- | --- |
| Nc1ncnc2c1ncn2[C@@H]1O[C@H](CSc2nc3ccccc3c(=O)[nH]2)[C@@H](O)[C@H]1O [2(G)(50), 2-({[(2S, 3S, 4R, 5R)-2-(6-amino-9H-purin-9-yl)-dihydroxytetrahydro-furan-2-yl]methyl}thio)-quinazolin-4-(3H)-one] | 37% | 9% |
| Nc1ccc2[nH]c(SC[C@H]3O[C@@H](n4cnc5c(N)ncnc54)[C@H](O)[C@@H]3O)nc2c1 [2(G)(51), (2R, 3R, 4S, 5S)-2-(6-amino-9H-purin-9-yl)-5-{[(5-amino-1H-benzoimidazol-2-yl)thio]methyl}tetrahydro-furan-3,4-diol] | 36% | 16% |
| Cc1nnc(SC[C@H]2O[C@@H](n3cnc4c(N)ncnc43)[C@H](O)[C@@H]2O)s1 [2(G)(52), (2R, 3R, 4S, 5S)-2-(6-amino-9H-purin-9-yl)-5-{[(5-methyl-1,3,4-thiadiazol-2-yl)thio]methyl}tetrahydro-furan-3,4-diol] | 23% | 19% |
| Nc1ncnc2c1ncn2[C@@H]1O[C@H](CSc2nc[nH]n2)[C@@H](O)[C@H]1O [2(G)(53), (2R, 3R, 4S, 5S)-2-(6-amino-9H-purin-9-yl)-5-[(1H-1,2,4-triazol-3-ylthio)methyl]tetrahydro-furan-3,4-diol] | 57% | 58% |
| COC(=O)CSC[C@H]1O[C@@H](n2cnc3c(N)ncnc32)[C@H](O)[C@@H]1O [2(G)(54), methyl ({[(2S, 3S, 4R, 5R)-5-(6-amino-9H-purin-9-yl)-3,4-dihydroxy-tetrahydrofuran-2-yl]methyl}thio)acetate] | 44% | 36% |
| Nc1ncnc(SC[C@H]2O[C@@H](n3cnc4c(N)ncnc43)[C@H](O)[C@@H]2O)n1 [2(G)(55), (2R, 3R, 4S, 5S)-2-(6-amino-9H-purin-9-yl)-5-{[(4-amino-1,3,5-triazin-2-yl)thio]methyl}tetra-hydrofuran-3,4-diol] | 47% | 43% |
| CNC(=O)CSC[C@H]1O[C@@H](n2cnc3c(N)ncnc32)[C@H](O)[C@@H]1O [2(G)(56), 2-({[(2S, 3S, 4R, 5R)-5-(6-amino-9H-purin-9-yl)-dihydroxytetrahydrofuran-2-yl]methyl}thio)-N-methylacetamide] | 10% | 6% |
| Nc1ncnc2c1ncn2[C@@H]1O[C@H](CSCCCCO)[C@@H](O)[C@H]1O [2(G)(57)] | 45% | 31% |
| Nc1ncnc2c1ncn2[C@@H]1O[C@H](CSCCc2ccncc2)[C@@H](O)[C@H]1O [2(G)(58), (2R, 3R, 4S, 5S)-2-(6-amino-9H-purin-9-yl)-5-{[(2-pyridin-4-ylethyl)thio]methyl}tetra-hydrofuran-3,4-diol] | 47% | 38% |
| Nc1cccnc1SC[C@H]1O[C@@H](n2cnc3c(N)ncnc32)[C@H](O)[C@@H]1O [2(G)(59), (2R, 3R, 4S, 5S)-2-(6-amino-9H-purin-9-yl)-5-{[(3-aminopyridin-2-yl)thio]methyl}tetra-hydrofuran-3,4-diol] | 47% | 18% |
| NC(=O)c1cccnc1SC[C@H]1O[C@@H](n2cnc3c(N)ncnc32)[C@H](O)[C@@H]1O [2(G)(60), 2-({[(2S, 3S, 4R, 5R)-5-(6-amino-9H-purin-9-yl)-3,4-dihydroxytetrahydro-furan-2-yl]methyl}thio)-nicotinamide] | 8% | 4% |
| Nc1ncnc2c1ncn2[C@@H]1O[C@H](CSCCc2cnccn2)[C@@H](O)[C@H]1O [2(G)(61)] | 20% | 15% |
| CC1OCCC1SC[C@H]1O[C@@H](n2cnc3c(N)ncnc32)[C@H](O)[C@@H]1O (stereo partly drawn) [2(G)(62), (2R, 3R, 4S, 5S)-2-(6-amino-9H-purin-9-yl)-5-{[(2-methyltetra-hydrofuran-3-yl)thio]methyl}tetrahydrofuran-3,4-diol] | 7% | 6% |

Continued, values first:

| activity at 50 µM | MT-A—10: initial velocity as a percentage of the initial velocity with MTA as substrate | Compound |
| --- | --- | --- |
| 5% | 5% | Cn1c(CO)cnc1SC[C@H]1O[C@@H](n2cnc3c(N)ncnc32)[C@H](O)[C@@H]1O [2(G)(63), (2R, 3R, 4S, 5S)-2-(6-amino-9H-purin-9-yl)-5-({[5-(hydroxymethyl)-1-methyl-1H-imidazol-2-yl]thio}methyl)tetra-hydrofuran-3,4-diol] |
| 48% | 48% | Nc1ncnc2c1ncn2[C@@H]1O[C@H](CSc2nc(O)c3cc[nH]c3n2)[C@@H](O)[C@H]1O [2(G)(64), (2R, 3R, 4S, 5S)-2-(6-amino-9H-purin-9-yl)-5-{[(4-hydroxy-7H-pyrrolo[2,3-d]pyrimidin-2-yl)thio]methyl}tetra-hydrofuran-3,4-diol] |
| 4% | 5% | CC(C)n1c(O)nnc1SC[C@H]1O[C@@H](n2cnc3c(N)ncnc32)[C@H](O)[C@@H]1O [2(G)(65), (2R, 3R, 4S, 5S)-2-(6-amino-9H-purin-9-yl)-5-{[(5-hydroxy-4-isopropyl-4H-1,2,4-triazol-3-yl)thio]methyl}tetrahydrofuran-3,4-diol] |
| 6% | 6% | CN(C)Cc1nnc(SC[C@H]2O[C@@H](n3cnc4c(N)ncnc43)[C@H](O)[C@@H]2O)n1C [2(G)(66), (2R, 3R, 4S, 5S)-2-(6-amino-9H-purin-9-yl)-5-[({5-[(dimethylamino)-methyl]-4-methyl-4H-1,2,4-triazol-3-yl}thio)methyl]tetrahydro-furan-3,4-diol] |
| 47% | 45% | Cc1nnc(SC[C@H]2O[C@@H](n3cnc4c(N)ncnc43)[C@H](O)[C@@H]2O)n1C [2(G)(67), (2R, 3R, 4S, 5S)-2-(6-amino-9H-purin-9-yl)-5-{[(4,5-dimethyl-4H-1,2,4-triazol-3-yl)thio]methyl}tetra-hydrofuran-3,4-diol] |
| 45% | 42% | CCC(C)SC[C@H]1O[C@@H](n2cnc3c(N)ncnc32)[C@H](O)[C@@H]1O (stereo partly drawn) [2(G)(68), (2R, 3R, 4S, 5S)-2-(6-amino-9H-purin-9-yl)-5-[(sec-butylthio)methyl]tetra-hydrofuran-3,4-diol] |
| 40% | 31% | Nc1ncnc2c1ncn2[C@@H]1O[C@H](CSc2cnccn2)[C@@H](O)[C@H]1O [2(G)(69), (2R, 3R, 4S, 5S)-2-(6-amino-9H-purin-9-yl)-5-[(pyrazin-2-ylthio)methyl]tetrahydro-furan-3,4-diol] |
| 3% | 6% | Nc1ncnc2c1ncn2[C@@H]1O[C@H](CSc2ccccc2Br)[C@@H](O)[C@H]1O [2(G)(70), (2R, 3R, 4S, 5S)-2-(6-amino-9H-purin-9-yl)-5-{[(2-bromophenyl)-thio]methyl}tetrahydro-furan-3,4-diol] |
| 73% | 77% | CCC(C)CSC[C@H]1O[C@@H](n2cnc3c(N)ncnc32)[C@H](O)[C@@H]1O (stereo partly drawn) [2(G)(71), (2R, 3R, 4S, 5S)-2-(6-amino-9H-purin-9-yl)-5-{[(2-methylbutyl)-thio]methyl}tetrahydro-furan-3,4-diol] |
| 38% | 33% | Nc1cccc(SC[C@H]2O[C@@H](n3cnc4c(N)ncnc43)[C@H](O)[C@@H]2O)c1 [2(G)(72), (2R, 3R, 4S, 5S)-2-(6-amino-9H-purin-9-yl)-5-{[(3-aminophenyl)thio]-methyl}tetrahydrofuran-3,4-diol] |
| 21% | 30% | Nc1ncnc2c1ncn2[C@@H]1O[C@H](CSCc2ccccc2Cl)[C@@H](O)[C@H]1O [2(G)(73), (2R, 3R, 4S, 5S)-2-(6-amino-9H-purin-9-yl)-5-{[(2-chlorobenzyl)thio]-methyl}tetrahydrofuran-3,4-diol] |
| 22% | 23% | Nc1ncnc2c1ncn2[C@@H]1O[C@H](CSCc2cccc(C(F)(F)F)c2)[C@@H](O)[C@H]1O [2(G)(74)] |

— patent publication US20040043959A1, “Combination therapies for treating methylthioadenosine phosphorylase deficient cells” (priority 2002, published 2004)
